Test results from patent US20240391926A1, “SPIROINDOLINONE COMPOUNDS AS Kv1.3 POTASSIUM SHAKER CHANNEL BLOCKERS” (D.E. Shaw Research, LLC, priority 2021, published 2024).

What was measured:
hERG channel = target: T1, hERG channel (Homo sapiens, UniProt Q12809); assay: hERG electrophysiology, automated whole-cell patch clamp (Patchliner) in CHO-K1 cells stably expressing hERG; format: cell-based; conditions: 30 nM-100 μM
T1 construct: expressed in transfected cells
Procedure: This assay is used to evaluate the disclosed compounds' inhibition activities against the hERG channel.
CHO-K1 cells stably expressing hERG were grown in Ham's F-12 Medium with glutamine containing 10% heat-inactivated FBS, 1% penicillin/streptomycin, hygromycin (100 μg/ml) and G418 (100 μg/ml). Cells were grown in culture flasks at 37° C. in a 5% CO2-humidified incubator.
The cells were bathed in an extracellular solution containing 140 mM NaCl, 4 mM KCl, 2 mM CaCl2), 1 mM MgCl2, 5 mM Glucose, 10 mM HEPES; pH adjusted to 7.4 with NaOH; 295-305 mOsm. The internal solution contained 50 mM KCl, 10 mM NaCl, 60 mM KF, 20 mM EGTA, 10 mM HEPES; pH adjusted to 7.2 with KOH; 285 mOsm. All compounds were dissolved in DMSO at 30 mM. Compound stock solutions were freshly diluted with external solution to concentrations of 30 nM, 100 nM, 300 nM, 1 μM, 3 μM, 10 μM, 30 μM and 100 μM. The highest content of DMSO (0.3%) was present in 100 μM.
The voltage protocol (see Table B) was designed to simulate voltage changes during a cardiac action potential with a 300 ms depolarization to +20 mV (analogous to the plateau phase of the cardiac action potential), a repolarization for 300 ms to −50 mV (inducing a tail current) and a final step to the holding potential of −80 mV. The pulse frequency was 0.3 Hz. Control (compound-free) and compound pulse trains for each compound concentration applied contained 70 pulses.
Whole-cell current recordings and compound application were enabled by means of an automated patch clamp platform Patchliner (Nanion). EPC 10 patch clamp amplifier (HEKA) along with Patchmaster software (HEKA Elektronik Dr. Schulze GmbH) was used for data acquisition. Data were sampled at 10 kHz without filtering. Increasing compound concentrations were applied consecutively to the same cell without washouts in between.
AUC and PEAK values were obtained with Patchmaster (HEKA Elektronik Dr. Schulze GmbH). To determine IC50 the last single pulse in the pulse train corresponding to a given compound concentration was used. Obtained AUC and PEAK values in the presence of compound were normalized to control values in the absence of compound. Using Origin (OridinLab), IC50 was derived from data fit to Hill equation: Icompound/Icontrol=(100−A)/(1+([compound]/IC50)nH)+A, where IC50 is the concentration at which current inhibition is half-maximal, [compound] is the applied compound concentration, A is the fraction of current that is not blocked and nH is the Hill coefficient.

Kv1.3 potassium channel = target: T2, Kv1.3 potassium channel (Homo sapiens, UniProt P22001); assay: Kv1.3 potassium channel blocker activity, automated whole-cell patch clamp (Patchliner) in CHO-K1 cells stably expressing Kv1.3; format: cell-based; conditions: 30 nM-100 μM
T2 construct: expressed in transfected cells
T2 sequence (P22001 whole entry): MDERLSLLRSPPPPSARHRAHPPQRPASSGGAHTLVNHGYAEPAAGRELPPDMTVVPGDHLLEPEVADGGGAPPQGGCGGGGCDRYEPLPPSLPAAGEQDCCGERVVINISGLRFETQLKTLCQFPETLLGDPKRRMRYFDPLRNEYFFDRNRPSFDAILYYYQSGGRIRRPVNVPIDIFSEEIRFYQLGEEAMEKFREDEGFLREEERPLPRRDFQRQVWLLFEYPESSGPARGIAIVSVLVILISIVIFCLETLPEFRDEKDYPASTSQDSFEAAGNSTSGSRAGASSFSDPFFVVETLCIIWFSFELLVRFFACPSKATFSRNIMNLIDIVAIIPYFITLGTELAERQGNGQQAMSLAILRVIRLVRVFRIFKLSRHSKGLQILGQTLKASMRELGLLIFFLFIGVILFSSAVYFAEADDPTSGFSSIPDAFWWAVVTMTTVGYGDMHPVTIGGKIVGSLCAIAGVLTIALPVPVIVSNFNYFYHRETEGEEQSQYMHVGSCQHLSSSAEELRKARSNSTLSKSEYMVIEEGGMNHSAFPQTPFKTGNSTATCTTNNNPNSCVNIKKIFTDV
How it was run: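 Whole-cell automated patch clamp in CHO-K1 cells, pH 7.4 external/7.2 internal; 100 ms steps from −90 to +40 mV at 0.1 Hz, 20-pulse trains. Cumulative 30 nM–100 μM on one cell, ≤10 s per concentration; last-pulse current normalized to control, IC50 from Hill fit.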

T1 sequence (Q12809 whole entry): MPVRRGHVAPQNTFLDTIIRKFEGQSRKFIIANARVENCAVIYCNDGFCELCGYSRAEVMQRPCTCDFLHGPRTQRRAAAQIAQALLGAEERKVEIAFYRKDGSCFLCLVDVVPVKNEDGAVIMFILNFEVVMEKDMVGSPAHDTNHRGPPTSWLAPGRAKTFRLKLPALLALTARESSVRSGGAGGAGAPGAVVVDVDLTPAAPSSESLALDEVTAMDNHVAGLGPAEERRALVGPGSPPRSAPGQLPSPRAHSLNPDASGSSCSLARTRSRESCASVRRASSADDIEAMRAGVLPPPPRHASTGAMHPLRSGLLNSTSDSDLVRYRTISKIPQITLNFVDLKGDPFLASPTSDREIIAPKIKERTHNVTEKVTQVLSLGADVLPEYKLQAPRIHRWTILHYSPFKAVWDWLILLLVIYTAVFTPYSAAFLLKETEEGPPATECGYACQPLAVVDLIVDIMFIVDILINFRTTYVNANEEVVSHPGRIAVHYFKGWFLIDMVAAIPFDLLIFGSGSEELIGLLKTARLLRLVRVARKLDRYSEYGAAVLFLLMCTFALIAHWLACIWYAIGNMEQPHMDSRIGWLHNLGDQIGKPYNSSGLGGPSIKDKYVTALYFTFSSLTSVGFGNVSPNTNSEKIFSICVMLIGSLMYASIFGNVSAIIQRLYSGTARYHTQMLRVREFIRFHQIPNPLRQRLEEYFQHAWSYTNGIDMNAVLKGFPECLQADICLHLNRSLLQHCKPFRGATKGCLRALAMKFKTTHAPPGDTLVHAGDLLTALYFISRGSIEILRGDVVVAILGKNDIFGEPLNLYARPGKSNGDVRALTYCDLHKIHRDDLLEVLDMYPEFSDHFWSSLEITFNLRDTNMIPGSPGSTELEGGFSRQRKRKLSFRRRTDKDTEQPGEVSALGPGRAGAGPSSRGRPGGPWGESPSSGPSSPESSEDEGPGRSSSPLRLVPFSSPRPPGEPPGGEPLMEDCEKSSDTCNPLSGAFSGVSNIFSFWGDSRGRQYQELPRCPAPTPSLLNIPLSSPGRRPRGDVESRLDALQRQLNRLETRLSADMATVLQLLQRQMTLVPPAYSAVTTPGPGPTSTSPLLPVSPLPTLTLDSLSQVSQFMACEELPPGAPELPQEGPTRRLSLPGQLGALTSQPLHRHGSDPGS

In the case of `Cc1c(Cl)c(Cl)cc2c1NC(=O)[C@@]21CCN(C(=O)CO)C1` [Compound 129, (3S)-5,6-dichloro-1′-(2-hydroxyacetyl)-7-methyl-1H-spiro[indole-3,3′-pyrrolidin]-2-one], the IC50 (hERG channel) is reported as over 100 µM and the IC50 (Kv1.3 potassium channel) is reported as under 0.3 µM.
